Assay results from PubChem BioAssay AID248 (DTP/NCI, 2004).
“And” between values parts separate entries of the source, which are not always exact repeats. Equal values may be shown once. Toxic doses and inconclusive results are not listed. Rule as the data show it: active = T/C of 150% or more; inactive = T/C below 125%.

System: L1210 leukemia ip in BDF1 mice, survival T/C
Test: NCI In Vivo Anticancer Drug Screen. Data for tumor model L1210 Leukemia (intraperitoneal) in B6D2F1 (BDF1) mice
Conditions: endpoint: mean survival time, higher = longer survival
How it was run: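 Transplantable tumor model; survival measured in treated vs vehicle control mice. Value = treated/control.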

[1] = dose: 100.0 mg/kg/injection, schedule: Q04DX002 (ip), vehicle: Klucel (hydroxypropylcellulose) (HPC)
[2] = dose: 200.0 mg/kg/injection, schedule: Q04DX002 (ip), vehicle: Klucel (hydroxypropylcellulose) (HPC)
[3] = dose: 50.0 mg/kg/injection, schedule: Q01DX001 (ip), vehicle: saline
[4] = dose: 50.0 mg/kg/injection, schedule: Q01DX009 (ip), vehicle: saline with Tween-80
[5] = dose: 100.0 mg/kg/injection, schedule: Q01DX001 (ip), vehicle: carboxymethylcellulose (CMC)
[6] = dose: 100.0 mg/kg/injection, schedule: Q01DX009 (ip), vehicle: saline with Tween-80
[7] = dose: 200.0 mg/kg/injection, schedule: Q01DX001 (ip), vehicle: carboxymethylcellulose (CMC)
[8] = dose: 50.0 mg/kg/injection, schedule: Q01DX001 (ip), vehicle: carboxymethylcellulose (CMC)
[9] = dose: 400.0 mg/kg/injection, schedule: Q01DX001 (ip), vehicle: carboxymethylcellulose (CMC)
[10] = dose: 25.0 mg/kg/injection, schedule: Q04DX003 (ip), vehicle: saline
[11] = dose: 50.0 mg/kg/injection, schedule: Q04DX003 (ip), vehicle: saline

Measured: T/C

C1CCC2[N-]CC3CCCCC3[N-]CC3CCCCC3[N-]CC3CCCCC3[N-]CC2C1.CO.[Co+3] (stereo unspecified)
inactive: [1] 110 % of control | [2] 103 % of control

CC(C)=CCC/C(C)=C\CC1=C(O)c2ccccc2C(=O)C1=O
inactive: dose: 100.0 mg/kg/injection, schedule: Q01DX001 (ip), vehicle: water 96 % of control | dose: 100.0 mg/kg/injection, schedule: Q04DX003 (ip), vehicle: acetone 102 % of control | dose: 200.0 mg/kg/injection, schedule: Q01DX001 (ip), vehicle: water 100 % of control | dose: 200.0 mg/kg/injection, schedule: Q04DX003 (ip), vehicle: acetone 94 % of control

CN(C)c1ccc(C(N)C(=O)O)cc1 (stereo unspecified)
inactive: [3] 101 % of control | dose: 100.0 mg/kg/injection, schedule: Q01DX001 (ip), vehicle: saline 98 % of control | dose: 200.0 mg/kg/injection, schedule: Q01DX001 (ip), vehicle: saline 95 % of control

CC(=O)Nc1ccc2c(c1)C[N+](C)(C1CCCCC1)CO2 (stereo unspecified)
inactive: dose: 25.0 mg/kg/injection, schedule: Q01DX009 (ip), vehicle: saline with Tween-80 101 % of control | dose: 25.0 mg/kg/injection, schedule: Q01DX015 (ip), vehicle: carboxymethylcellulose (CMC) 103 % of control | [4] 95 % of control | dose: 50.0 mg/kg/injection, schedule: Q01DX015 (ip), vehicle: carboxymethylcellulose (CMC) 98 % of control | dose: 50.0 mg/kg/injection, schedule: Q04DX003 (ip), vehicle: saline with Tween-80 97 % of control | [5] 92 % of control | [6] 95 % of control | dose: 100.0 mg/kg/injection, schedule: Q04DX003 (ip), vehicle: saline with Tween-80 100 % of control | [7] 94 % of control

COc1ccc(OC)c(CCCC(=O)O)c1
inactive: [8] 108 % of control | [5] 104 % of control | [7] 104 % of control | [9] 102 % of control

CCOP(=O)(Oc1ccc([N+](=O)[O-])cc1)c1cccc(Cl)c1 (stereo unspecified)
inactive: dose: 5.0 mg/kg/injection, schedule: Q01DX001 (ip), vehicle: saline 102 % of control | dose: 10.0 mg/kg/injection, schedule: Q01DX001 (ip), vehicle: saline 111 % of control

NCC1OC(n2cnc3c(N)ncnc32)CC1O (stereo unspecified)
inactive: [8] 107 % of control | [5] 107 % of control | [7] 109 % of control | [9] 104 % of control

COc1ccc(/C=N\NC(=O)CNC(=O)Nc2cccc(Cl)c2)cc1O
inactive: [4] 95 % of control | [6] 92 % of control | dose: 200.0 mg/kg/injection, schedule: Q01DX009 (ip), vehicle: saline with Tween-80 92 % of control

COc1ccccc1C(=O)C(O)c1ccccc1OC (stereo unspecified)
inactive: dose: 50.0 mg/kg/injection, schedule: Q01DX009 (ip), vehicle: Klucel (hydroxypropylcellulose) (HPC) 105 % of control | dose: 100.0 mg/kg/injection, schedule: Q01DX009 (ip), vehicle: Klucel (hydroxypropylcellulose) (HPC) 101 % of control | dose: 100.0 mg/kg/injection, schedule: Q04DX003 (ip), vehicle: Klucel (hydroxypropylcellulose) (HPC) 94 % of control | dose: 200.0 mg/kg/injection, schedule: Q01DX009 (ip), vehicle: Klucel (hydroxypropylcellulose) (HPC) 96 % of control | dose: 200.0 mg/kg/injection, schedule: Q04DX003 (ip), vehicle: Klucel (hydroxypropylcellulose) (HPC) 96 % of control | dose: 400.0 mg/kg/injection, schedule: Q01DX009 (ip), vehicle: Klucel (hydroxypropylcellulose) (HPC) 101 % of control | dose: 400.0 mg/kg/injection, schedule: Q04DX003 (ip), vehicle: Klucel (hydroxypropylcellulose) (HPC) 93 % of control

N#CN1CCCC1
inactive: dose: 44.0 mg/kg/injection, schedule: Q01DX Z (ip), vehicle: saline 98 % of control | dose: 66.0 mg/kg/injection, schedule: Q01DX Z (ip), vehicle: saline 102 % of control

O=C(Nc1ccc(C2=NCCN2)cc1)c1ccc(Cl)c(C(=O)Nc2ccc(C3=NCCN3)cc2)c1
inactive: dose: 2.0 mg/kg/injection, schedule: Q01DX Z (ip), vehicle: carboxymethylcellulose (CMC) 97 % of control | dose: 3.75 mg/kg/injection, schedule: Q01DX Z (ip), vehicle: water 102 % of control | dose: 4.0 mg/kg/injection, schedule: Q01DX Z (ip), vehicle: carboxymethylcellulose (CMC) 98 % of control | dose: 7.5 mg/kg/injection, schedule: Q01DX Z (ip), vehicle: carboxymethylcellulose (CMC) 106 % of control | dose: 7.5 mg/kg/injection, schedule: Q01DX Z (ip), vehicle: water 102 % of control | dose: 15.0 mg/kg/injection, schedule: Q01DX Z (ip), vehicle: carboxymethylcellulose (CMC) 95 % of control | dose: 15.0 mg/kg/injection, schedule: Q01DX Z (ip), vehicle: saline 115 % of control and 92 % of control | dose: 15.0 mg/kg/injection, schedule: Q01DX Z (ip), vehicle: water 106 % of control | dose: 30.0 mg/kg/injection, schedule: Q01DX Z (ip), vehicle: saline 118 % of control and 97 % of control | dose: 60.0 mg/kg/injection, schedule: Q01DX Z (ip), vehicle: saline 100 % of control

NC(=S)NNC(N)=S
inactive: dose: 50.0 mg/kg/injection, schedule: Q01DX001 (ip), vehicle: Klucel (hydroxypropylcellulose) (HPC) 90 % of control | dose: 100.0 mg/kg/injection, schedule: Q01DX001 (ip), vehicle: Klucel (hydroxypropylcellulose) (HPC) 97 % of control | dose: 200.0 mg/kg/injection, schedule: Q01DX001 (ip), vehicle: Klucel (hydroxypropylcellulose) (HPC) 100 % of control

C=C(C)C1C2OC2C(=O)C2=CCCC(C)C21C (stereo unspecified)
inactive: [10] 97 % of control | [11] 100 % of control | dose: 100.0 mg/kg/injection, schedule: Q04DX003 (ip), vehicle: saline 100 % of control

CN(C)C(=O)NC1CCc2ccccc21 (stereo unspecified)
inactive: dose: 100.0 mg/kg/injection, schedule: Q01DX001 (ip), vehicle: other 95 % of control | dose: 200.0 mg/kg/injection, schedule: Q01DX001 (ip), vehicle: other 93 % of control | dose: 400.0 mg/kg/injection, schedule: Q01DX001 (ip), vehicle: other 93 % of control

O=C(O)c1cc([N+](=O)[O-])cc(P(=O)(O)O)c1
inactive: dose: 12.5 mg/kg/injection, schedule: Q01DX001 (ip), vehicle: saline 86 % of control | dose: 12.5 mg/kg/injection, schedule: Q04DX003 (ip), vehicle: saline 96 % of control | dose: 25.0 mg/kg/injection, schedule: Q01DX001 (ip), vehicle: saline 99 % of control | [10] 89 % of control | [3] 87 % of control | [11] 94 % of control | dose: 75.0 mg/kg/injection, schedule: Q01DX009 (ip), vehicle: saline 100 % of control | dose: 115.0 mg/kg/injection, schedule: Q01DX009 (ip), vehicle: saline 92 % of control

Cc1cc(O)c(C)c(C(=O)O)c1
inactive: [5] 98 % of control | [7] 106 % of control | [9] 98 % of control

O=C1NC(=O)C(=Cc2ccccc2[N+](=O)[O-])C(=O)N1
inactive: [5] 93 % of control | [7] 91 % of control | [9] 87 % of control

O=C1Nc2ccc(Br)cc2C1=Nc1cccnc1
inactive: [1] 116 % of control | [2] 95 % of control | dose: 400.0 mg/kg/injection, schedule: Q04DX002 (ip), vehicle: Klucel (hydroxypropylcellulose) (HPC) 116 % of control
